In US9259452B2, “Deacetylase inhibitor therapy” (Celgene Corporation, priority 2006, dated 2016):
Values joined by “and” are separate entries in the source; they are usually repeats but may differ in a detail not shown here. Equal values may be shown once.

How the values were obtained:
Type in all cases: in vivo, human
[1] = Rhythm evaluation by Holter and telemetry monitoring
Text: Rhythm: A 24-hour Holter monitor was obtained prior to initiating therapy to establish a baseline rhythm. Patients were monitored by telemetry following administration of the first dose until discharge on day 3.

[2] = Toxicities and cardiac events observed on the phase II trial
Text: The protocol (NCI 01-C-0049 or 1312) and informed consent were approved by the Institutional Review Board of the National Cancer Institute. All data used in this analysis were obtained from patients who signed an informed consent and were enrolled and treated at the NIH Warren Grant Magnuson Clinical Center. Toxicities were reported using the National Cancer Institute Common Toxicity Criteria, CTC version 2.0. The Inclusion Criteria required measurable disease, an age of 18 years or older, an ECOG performance status of 0, 1 or 2, and a life expectancy of >12 wk. Required laboratory values included AGC≧1000/μL, platelets≧100,000/μL, bilirubin <1.5× the institutional upper limit of normal (ULN), AST <3×ULN, and creatinine <1.5×ULN. Patients with a myocardial infarction within the previous 6 months, a left ventricular ejection fraction (LVEF) below normal (<45% if performed by MUGA, or <50% if performed by echocardiogram or cardiac MRI), a corrected QT interval of >500 ms, unstable angina, or third degree heart block (unless with pacemaker) were not eligible to enroll.
Subsequently, the protocol was amended and all patients were treated on days 1, 8 and 15 of a 28 day cycle, with a starting dose of 14 mg/m^2. This change was made for improved patient tolerability. […] Provisions for dose reduction were made in the case of grade 3 or 4 toxicity. Alternatively, a dose increase was allowed for patients who had no serious toxicities.

[3] = Left ventricular ejection fraction (LVEF) evaluation by MUGA, echocardiogram or cardiac MRI
Protocol: Evaluation of left ventricular ejection fraction: LVEF evaluations were performed at baseline, after the second cycle and every 3 cycles thereafter using MUGA, echocardiogram or cardiac MRI (23, 24). A patient's on-study and last available LVEF are included in this analysis. Cardiac measurements were performed according to the American Society of Echocardiography guidelines (25). LVEFs from echocardiograms were evaluated by an independent reviewer in a blinded manner and were assessed using the biplane Simpson's method.

[4] = 16 patients receiving at least 6 cycles
[5] = 16 patients receiving at least 6 cycles, baseline

Latest EF, Median [3, 4]: 63.5% | Latest EF, Range [3, 4]: 50-80% | Starting EF, Median [3, 5]: 65.5% | Starting EF, Range [3, 5]: 50-85% | EF by MUGA, On-study Median (range) ([3]; All patients (19), baseline): 61% (46-85) | EF by Echocardiogram, On-study Median (range) ([3]; All patients (23), baseline): 67% (53-85) | Median actual change in LVEF, on-study to last scan ([3]; MUGA scans, 13 patients, median 20.3 weeks): 1% | EF by MUGA, Last evaluation Median (range) ([3]; Patients treated with >6 cycles (7)): 61% (50-68) | EF by MUGA, On-study Median (range) ([3]; Patients treated with >6 cycles (7), baseline): 64% (50-77) | EF by Echocardiogram, Last evaluation Median (range) ([3]; Patients treated with >6 cycles (9)): 68% (58-80) | EF by Echocardiogram, On-study Median (range) ([3]; Patients treated with >6 cycles (9), baseline): 69% (56-85) | EF by MUGA, Last evaluation Median (range) ([3]; Patients with pre- and post treatment evaluations (13)): 61% (50-91) | EF by MUGA, On-study Median (range) ([3]; Patients with pre- and post treatment evaluations (13), baseline): 62% (46-85) | EF by Echocardiogram, Last evaluation Median (range) ([3]; Patients with pre- and post treatment evaluations (22)): 64% (53-87) | EF by Echocardiogram, On-study Median (range) ([3]; Patients with pre- and post treatment evaluations (22), baseline): 67% (53-85) | Median actual change in LVEF, on-study to last scan ([3]; echocardiograms, 22 patients, median 18.4 weeks): −1%
SMILES: C/C=C1\NC(=O)[C@H]2CSSCC/C=C/[C@H](CC(=O)N[C@H](C(C)C)C(=O)N2)OC(=O)[C@H](C(C)C)NC1=O [romidepsin, (1S,4S,10S,16E,21R)-7-[(2Z)-ethylidene]-4,21-diisopropyl-2-oxa-12,13-dithia-5,8,20,23-tetraazabicyclo[8.7.6]tricos-16-ene-3,6,9,19,22-pentanone]
VT on 24-hour Holter during administration ([1]; 20 administrations to 9 patients, including 2 with VT pre-treatment): No patient had VT | Patients noted to have SVT on 24-hour Holter during administration ([1]; 20 administrations to 9 patients, episodes similar to pretreatment Holter): Two | Additional patients observed to have wide complex tachycardia on telemetry ([1]; telemetry 24-36 hours, 36 patients, max one event per 24 hr, 4 to 12 beats): Four | Additional patients observed to have rare SVT on telemetry ([1]; telemetry 24-36 hours, 36 patients, similar frequency on pre-treatment Holter): Three | Observed toxicities ([2]; 42 patients, phase II trial): primarily nausea and fatigue | Pre-treatment and post-treatment EP studies ([2]; one patient with significant ectopy prior to initiation of protocol): no change in intracardiac conduction or inducibility of any arrhythmias | Cardiac event in a patient with QTc greater than 500 ([2]; telemetry, abnormal magnesium and potassium levels): 12 beat run of VT that was asymptomatic and did not recur | Pre-treatment versus post-treatment LVEF ([3]; 8 patients with six or more cycles and prior doxorubicin): did not demonstrate a difference in pre-treatment and post-treatment LVEF | LVEF evaluations versus baseline ([3]; 16 patients who received six or more cycles, median cumulative dose 390 mg/m^2): did not demonstrate a change from baseline | Latest EF ([3]; individual patients receiving at least 6 cycles of therapy): 50% and 78% and 61% (3×) and 72% and 68% (3×) and 80% and 58% (2×) and 70% and 63% and 64% and 60% | Starting EF ([3]; individual patients receiving at least 6 cycles of therapy, baseline): 52% and 69% and 56% and 67% and 70% (2×) and 85% (2×) and 68% and 58% and 59% and 64% (2×) and 50% and 77% and 54%
